System: ΔG/SEAP/HCV E1E2
Assay: Effect of test substance on cell infection with HCV pseudotype virus (SEAP reporter assay in HepG2 cells)
Assay type: cell-based
Conditions: Hepatitis C virus

| Structure (SMILES) | IC50 |
| --- | --- |
| CCc1ccc(C(F)(F)F)c(-n2nc(-c3cc(OC)cc(OC)c3)c3c(c2=O)CCC3)c1 [Example 89, 4-(3,5-dimethoxy-phenyl)-2-(5-ethyl-2-trifluoromethyl-phenyl)-2,5,6,7-tetrahydro-cyclopenta[d]pyridazin-1-one] | < 100 nM |
| COc1cc(OC)cc(-c2nn(-c3cc(NCCCN(C)C)ccc3C(F)(F)F)c(=O)c3c2CCC3)c1 [Example 128, 4-(3,5-dimethoxy-phenyl)-2-[5-(3-dimethylamino-propylamino)-2-trifluoromethyl-phenyl]-2,5,6,7-tetrahydro-cyclopenta[d]pyridazin-1-one] | < 100 nM |
| COc1cc(OC)cc(-c2nn(-c3cc(N4CC[C@H](O)C4)ccc3C(F)(F)F)c(=O)c3c2CCN3CC(N)=O)c1 [Example 28, 2-{4-(3,5-dimethoxy-phenyl)-6-[5-((S)-3-hydroxy-pyrrolidin-1-yl)-2-trifluoromethyl-phenyl]-7-oxo-2,3,6,7-tetrahydro-pyrrolo[2,3-d]pyridazin-1-yl}-acetamide] | < 100 nM |
| O=c1c2c(c(-c3cccc(Cl)c3)nn1-c1cc(N3CC[C@H](O)C3)ccc1C(F)(F)F)CCC2 [Example 72, 4-(3-chloro-phenyl)-2-[5-((S)-3-hydroxy-pyrrolidin-1-yl)-2-trifluoromethyl-phenyl]-2,5,6,7-tetrahydro-cyclopenta[d]pyridazin-1-one] | < 100 nM |
| COc1cc(OC)cc(-c2nn(-c3cc(N4CC[C@H](O)C4)ccc3C(F)(F)F)c(=O)c3c2CCN3CC(=O)NCCCCCCNC(C)=O)c1 [Example 40, N-(6-acetylamino-hexyl)-2-{4-(3,5-dimethoxy-phenyl)-6-[5-((S)-3-hydroxy-pyrrolidin-1-yl)-2-trifluoromethyl-phenyl]-7-oxo-2,3,6,7-tetrahydro-pyrrolo[2,3-d]pyridazin-1-yl}-acetamide] | < 100 nM |
| COCCNC(=O)CN1CCc2c(-c3cc(OC)cc(OC)c3)nn(-c3cc(N4CC[C@H](O)C4)ccc3C(F)(F)F)c(=O)c21 [Example 36, 2-{4-(3,5-dimethoxy-phenyl)-6-[5-((S)-3-hydroxy-pyrrolidin-1-yl)-2-trifluoromethyl-phenyl]-7-oxo-2,3,6,7-tetrahydro-pyrrolo[2,3-d]pyridazin-1-yl}-N-(2-methoxy-ethyl)-acetamide] | < 100 nM |
| COc1cccc(-c2nn(-c3cc(N4CC[C@H](O)C4)ccc3C(F)(F)F)c(=O)c3c2CCC3)c1 [Example 58, 2-[5-((S)-3-hydroxy-pyrrolidin-1-yl)-2-trifluoromethyl-phenyl]-4-(3-methoxy-phenyl)-2,5,6,7-tetrahydro-cyclopenta[d]pyridazin-1-one] | < 100 nM |
| O=c1c2c(c(-c3ccccn3)nn1-c1cc(N3CC[C@H](O)C3)ccc1C(F)(F)F)CCC2 [Example 110, 2-[5-((S)-3-hydroxy-pyrrolidin-1-yl)-2-trifluoromethyl-phenyl]-4-pyridin-2-yl-2,5,6,7-tetrahydro-cyclopenta[d]pyridazin-1-one] | 100 to 10000 nM |
| COc1cc(OC)cc(-c2nn(-c3cc(N4CC[C@H](O)C4)ccc3C(F)(F)F)c(=O)c3c2OCC3)c1 [Example 1-35, 7-(3,5-dimethoxy-phenyl)-5-[5-((S)-3-hydroxy-pyrrolidin-1-yl)-2-trifluoromethyl-phenyl]-3,5-dihydro-2H-furo[2,3-d]pyridazin-4-one] | < 100 nM |
| COc1cc(OC)cc(-c2nn(-c3cc(N4CC[C@@H](O)C4)ccc3C(F)(F)F)c(=O)c3c2CCC3)c1 [Example 21, 4-(3,5-dimethoxy-phenyl)-2-[5-((R)-3-hydroxy-pyrrolidin-1-yl)-2-trifluoromethyl-phenyl]-2,5,6,7-tetrahydro-cyclopenta[d]pyridazin-1-one] | < 100 nM |
| CNc1ccc(C(F)(F)F)c(-n2nc(-c3cc(OC)cc(OC)c3)c3c(c2=O)CCC3)c1 [Example 82, 4-(3,5-dimethoxy-phenyl)-2-(5-methylamino-2-trifluoromethyl-phenyl)-2,5,6,7-tetrahydro-cyclopenta[d]pyridazin-1-one] | < 100 nM |
| COc1cc(OC)cc(-c2nn(-c3cc(NCCC(=O)N(C)C)ccc3C(F)(F)F)c(=O)c3c2CCC3)c1 [Example 139, 3-{3-[4-(3,5-dimethoxy-phenyl)-1-oxo-1,5,6,7-tetrahydro-cyclopenta[d]pyridazin-2-yl]-4-trifluoromethyl-phenylamino}-N,N-dimethyl-propionamide] | < 100 nM |
| COc1cc(OC)cc(-c2nn(-c3cc(NCC4CC4)ccc3C(F)(F)F)c(=O)c3c2CCC3)c1 [Example 141, 2-[5-(cyclopropylmethyl-amino)-2-trifluoromethylphenyl]-4-(3,5-dimethoxy-phenyl)-2,5,6,7-tetrahydro-cyclopenta[d]pyridazin-1-one] | < 100 nM |
| O=c1c2c(c(-c3ccccc3Cl)nn1-c1cc(N3CC[C@H](O)C3)ccc1C(F)(F)F)CCC2 [Example 96, 4-(2-chloro-phenyl)-2-[5-((S)-3-hydroxy-pyrrolidin-1-yl)-2-trifluoromethyl-phenyl]-2,5,6,7-tetrahydro-cyclopenta[d]pyridazin-1-one] | 100 to 10000 nM |
| CCN(C)c1ccc(C(F)(F)F)c(-n2nc(-c3cc(OC)cc(OC)c3)c3c(c2=O)CCC3)c1 [Example 68, 4-(3,5-dimethoxy-phenyl)-2-[5-(ethyl-methylamino)-2-trifluoromethyl-phenyl]-2,5,6,7-tetrahydro-cyclopenta[d]pyridazin-1-one] | < 100 nM |
| COc1cc(OC)cc(-c2nn(-c3cc(OCCO)ccc3C(F)(F)F)c(=O)c3c2CCC3)c1 [Example 63, 4-(3,5-dimethoxy-phenyl)-2-[5-(2-hydroxy-ethoxy)-2-trifluoromethyl-phenyl]-2,5,6,7-tetrahydro-cyclopenta[d]pyridazin-1-one] | < 100 nM |
| CNC(=O)CN1CCc2c(-c3cc(OC)cc(OC)c3)nn(-c3cc(N4CC[C@H](O)C4)ccc3C(F)(F)F)c(=O)c21 [Example 31, 2-{4-(3,5-dimethoxy-phenyl)-6-[5-((S)-3-hydroxy-pyrrolidin-1-yl)-2-trifluoromethyl-phenyl]-7-oxo-2,3,6,7-tetrahydro-pyrrolo[2,3-d]pyridazin-1-yl}-N-methyl-acetamide] | < 100 nM |
| CCNc1ccc(C(F)(F)F)c(-n2nc(-c3cc(OC)cc(OC)c3)c3c(c2=O)CCC3)c1 [Example 67, 4-(3,5-dimethoxy-phenyl)-2-(5-ethylamino-2-trifluoromethyl-phenyl)-2,5,6,7-tetrahydro-cyclopenta[d]pyridazin-1-one] | < 100 nM |
| COc1cc(OC)cc(-c2nn(-c3cc(NCCC(N)=O)ccc3C(F)(F)F)c(=O)c3c2CCC3)c1 [Example 142, 3-{3-[4-(3,5-dimethoxy-phenyl)-1-oxo-1,5,6,7-tetrahydro-cyclopenta[d]pyridazin-2-yl]-4-trifluoromethyl-phenylamino}-propionamide] | < 100 nM |
| COc1cc(OC)cc(-c2nn(-c3cc(-c4cccnn4)ccc3C(F)(F)F)c(=O)c3c2CCN3)c1 [Example 17, 4-(3,5-dimethoxy-phenyl)-6-(5-pyridazin-3-yl-2-trifluoromethyl-phenyl)-1,2,3,6-tetrahydro-pyrrolo[2,3-d]pyridazin-7-one] | < 100 nM |
| COc1cc(OC)cc(-c2nn(-c3cc(NCC(=O)OC(C)(C)C)ccc3C(F)(F)F)c(=O)c3c2CCC3)c1 [Example 94, {3-[4-(3,5-dimethoxy-phenyl)-1-oxo-1,5,6,7-tetrahydro-cyclopenta[d]pyridazin-2-yl]-4-trifluoromethyl-phenylamino}-acetic acid tert-butyl ester] | 100 to 10000 nM |
| O=c1c2c(c(-c3cccnc3)nn1-c1cc(N3CC[C@H](O)C3)ccc1C(F)(F)F)CCC2 [Example 103, 2-[5-((S)-3-hydroxy-pyrrolidin-1-yl)-2-trifluoromethyl-phenyl]-4-pyridin-3-yl-2,5,6,7-tetrahydro-cyclopenta[d]pyridazin-1-one] | 100 to 10000 nM |
| CCN1CCc2c(-c3cc(OC)cc(OC)c3)nn(-c3cc(N4CC[C@H](O)C4)ccc3C(F)(F)F)c(=O)c21 [Example 55, 4-(3,5-dimethoxy-phenyl)-1-ethyl-6-[5-((S)-3-hydroxy-pyrrolidin-1-yl)-2-trifluoromethyl-phenyl]-1,2,3,6-tetrahydro-pyrrolo[2,3-d]pyridazin-7-one] | < 100 nM |
| COc1cc(OC)cc(-c2nn(-c3cc(NCCC(=O)OC(C)(C)C)ccc3C(F)(F)F)c(=O)c3c2CCC3)c1 [Example 115, 3-{3-[4-(3,5-dimethoxy-phenyl)-1-oxo-1,5,6,7-tetrahydro-cyclopenta[d]pyridazin-2-yl]-4-trifluoromethyl-phenylamino}-propionic acid tert-butyl ester] | < 100 nM |
| COc1cc(OC)cc(-c2nn(-c3cc(NC(C)CO)ccc3C(F)(F)F)c(=O)c3c2CCC3)c1 (centres unmarked) [Example 131, 4-(3,5-dimethoxy-phenyl)-2-[5-(2-hydroxy-1-methyl-ethylamino)-2-trifluoromethyl-phenyl]-2,5,6,7-tetrahydro-cyclopenta[d]pyridazin-1-one] | < 100 nM |
| CCCCCCNC(=O)CN1CCc2c(-c3cc(OC)cc(OC)c3)nn(-c3cc(N4CC[C@H](O)C4)ccc3C(F)(F)F)c(=O)c21 [Example 35, 2-{4-(3,5-dimethoxy-phenyl)-6-[5-((S)-3-hydroxy-pyrrolidin-1-yl)-2-trifluoromethyl-phenyl]-7-oxo-2,3,6,7-tetrahydro-pyrrolo[2,3-d]pyridazin-1-yl}-N-hexyl-acetamide] | < 100 nM |
| Cc1cc(-c2cnco2)cc(-c2nn(-c3cc(-c4cccnn4)ccc3C(F)(F)F)c(=O)c3c2CCC3)c1 [Example 3, 4-(3-methyl-5-oxazol-5-yl-phenyl)-2-(5-pyridazin-3-yl-2-trifluoromethyl-phenyl)-2,5,6,7-tetrahydro-cyclopenta[d]pyridazin-1-one] | < 100 nM |
| COc1cc(OC)cc(-c2nn(-c3cc(NC4CCCC4)ccc3C(F)(F)F)c(=O)c3c2CCC3)c1 [Example 146, 2-(5-cyclopentylamino-2-trifluoromethyl-phenyl)-4-(3,5-dimethoxy-phenyl)-2,5,6,7-tetrahydro-cyclopenta[d]pyridazin-1-one] | < 100 nM |
| CC(=O)N[C@@H]1CCN(c2ccc(C(F)(F)F)c(-n3nc(-c4cc(C)cc(C)c4)c4c(c3=O)N(CC(N)=O)CC4)c2)C1 [Example 1-27, {6-[5-((R)-3-acetylamino-pyrrolidin-1-yl)-2-trifluoromethyl-phenyl]-4-(3,5-dimethyl-phenyl)-7-oxo-2,3,6,7-tetrahydro-pyrrolo[2,3-d]pyridazin-1-yl}-acetamide] | < 100 nM |
